Laboratory results taken from US11596622B2, “Mazindol treatment for heroin dependence and substance use disorder” (NLS Pharmaceutics AG, priority 2017, dated 2023).

Experiments:
Sprague-Dawley rats = test: Naloxone precipitated withdrawal syndrome of heroin; format: in vivo; conditions: for Abdominal constrictions score (Abd C) / Abnormal posture score (Ab P) / Chromodacryorrhea score (Chr) / Diarrhea score (Diarr) / Erection or ejaculation score (Er Ej) / Escape attempts score (Esc A) / Facial fasciculation or teeth chattering score (F F T C) / Global Score / Irritability score (Irrit) / Profuse salivation score (Pr Sal) / Ptosis score (Ptos) / Swallowing movements score (Sw M) / Weight loss score (W Los) / Wet dog shakes score (W D S): mean
Description: The abrupt cessation of chronic opiate use results in a well characterized withdrawal syndrome with symptoms that include pain sensitivity, dysphoria, irritability, restlessness, insomnia, diarrhea and hyperventilation. In the present model, the naloxone-precipitated withdrawal syndrome is measured in rodents. Animals are chronically treated with a drug, e.g. morphine or heroin. Opiate withdrawal syndrome is elicited by an acute injection of the opiate antagonist Naloxone.
The effect of mazindol on heroin withdrawal syndrome elicited by naloxone was examined in Sprague-Dawley rats using a method similar to the one used by Jiang et al. (10),
Animals were subdivided into two groups. One group received heroin two i.p. injections/day for 12 consecutive days and a single injection on the 13th day (total: 25 injections) as exposed in Table 3 group received saline instead of heroin following the same protocol.
On day 13, animals received treatments and were tested according to the following time schedule: • T=0: i.p. injection of heroin (15 mg/kg) or vehicle. • T=2.5 h: animals individually placed in a transparent Plexiglas observation boxes (40×40×40 cm). • T=3.5 h: i.p. injection of treatment (see below). • T=4 h: i.p. injection of naloxone (5 mg/kg), start of test: observation of withdrawal symptoms as indicated in Table 4. • T=5 h: end of test, animals placed back into their home cages.
Animals received the following treatments at T 3.5 h (i.e. 30 min before injection of naloxone and observation of symptoms): • 1) Animals treated with saline during the intoxication period (days 1-12) and at T0 on day 13: • Saline group (N=8): saline (0.9% NaCl). • 2) Animals treated with […] during the intoxication period (days 1-12) and at T0 on day 13: • Hero group (N=14): saline (0.9% NaCl). • Amph 1 group (N=4): D-amphetamine (1 mg/kg). • Maz 0.125 group (N=5): mazindol (0.125 mg/kg). • Maz 0.25 group (N=6): mazindol (0.25 mg/kg). • Maz 0.5 group (N=6): mazindol (0.5 mg/kg). • Maz 1 group (N=6): mazindol (1 mg/kg). • Maz 2 group (N=5): mazindol (2 mg/kg).
A weighting factor was ascribed for each sign from which a score was calculated.
Examples: • Body weight before naloxone injection=241 g; after naloxone injection=236 g: • Weight loss score=2=100×(241−236)/241 • Number of escape attempts=8: • Score for escape attempts=2 • Profuse salivation present: • Score for profuse salivation
A global withdrawal score was then calculated: • Global score=the sum of the scores

[1] = test system: cocaine abuse and dependence; conditions: studies (7, 8); vs. placebo; cited from earlier work
[2] = animal toxicology studies; cited from earlier work
[3] = Nakashima et al., 2004; cited from earlier work
[4] = Maz 0.125: heroin-treated rats, mazindol 0.125 mg/kg i.p. 30 min before naloxone 5 mg/kg
[5] = Maz 0.25: heroin-treated rats, mazindol 0.25 mg/kg i.p. 30 min before naloxone 5 mg/kg
[6] = Maz 0.5: heroin-treated rats, mazindol 0.5 mg/kg i.p. 30 min before naloxone 5 mg/kg
[7] = Maz 1: heroin-treated rats, mazindol 1 mg/kg i.p. 30 min before naloxone 5 mg/kg
[8] = Maz 2: heroin-treated rats, mazindol 2 mg/kg i.p. 30 min before naloxone 5 mg/kg

OC1(c2ccc(Cl)cc2)c2ccccc2C2=NCCN21 (centres unmarked) [Mazindol, 5-(4-chlorophenyl)-2,5-dihydro-3 H-imadazo[2,1-a]isoindol-5-ol]
Abdominal constrictions score (Abd C) (Sprague-Dawley rats; [4]): 2.8
Abnormal posture score (Ab P) (Sprague-Dawley rats; [4]): 0.0
Chromodacryorrhea score (Chr) (Sprague-Dawley rats; [4]): 2.0
Diarrhea score (Diarr) (Sprague-Dawley rats; [4]): 0.8
Erection or ejaculation score (Er Ej) (Sprague-Dawley rats; [4]): 0.0
Escape attempts score (Esc A) (Sprague-Dawley rats; [4]): 1.0
Facial fasciculation or teeth chattering score (F F T C) (Sprague-Dawley rats; [4]): 1.6
Global Score (Sprague-Dawley rats; [4]): 13.2
Irritability score (Irrit) (Sprague-Dawley rats; [4]): 0.0
Profuse salivation score (Pr Sal) (Sprague-Dawley rats; [4]): 0.0
Ptosis score (Ptos) (Sprague-Dawley rats; [4]): 0.0
Swallowing movements score (Sw M) (Sprague-Dawley rats; [4]): 1.2
Weight loss score (W Los) (Sprague-Dawley rats; [4]): 1.0
Wet dog shakes score (W D S) (Sprague-Dawley rats; [4]): 2.8
Abdominal constrictions score (Abd C) (Sprague-Dawley rats; [5]): 0.0
Abnormal posture score (Ab P) (Sprague-Dawley rats; [5]): 0.0
Chromodacryorrhea score (Chr) (Sprague-Dawley rats; [5]): 0.8
Diarrhea score (Diarr) (Sprague-Dawley rats; [5]): 1.0
Erection or ejaculation score (Er Ej) (Sprague-Dawley rats; [5]): 0.0
Escape attempts score (Esc A) (Sprague-Dawley rats; [5]): 0.7
Facial fasciculation or teeth chattering score (F F T C) (Sprague-Dawley rats; [5]): 2.0
Global Score (Sprague-Dawley rats; [5]): 8.3
Irritability score (Irrit) (Sprague-Dawley rats; [5]): 0.0
Profuse salivation score (Pr Sal) (Sprague-Dawley rats; [5]): 0.0
Ptosis score (Ptos) (Sprague-Dawley rats; [5]): 0.0
Swallowing movements score (Sw M) (Sprague-Dawley rats; [5]): 1.0
Weight loss score (W Los) (Sprague-Dawley rats; [5]): 1.2
Wet dog shakes score (W D S) (Sprague-Dawley rats; [5]): 1.7
Abdominal constrictions score (Abd C) (Sprague-Dawley rats; [6]): 0.0
Abnormal posture score (Ab P) (Sprague-Dawley rats; [6]): 0.0
Chromodacryorrhea score (Chr) (Sprague-Dawley rats; [6]): 0.0
Diarrhea score (Diarr) (Sprague-Dawley rats; [6]): 1.0
Erection or ejaculation score (Er Ej) (Sprague-Dawley rats; [6]): 0.0
Escape attempts score (Esc A) (Sprague-Dawley rats; [6]): 1.7
Facial fasciculation or teeth chattering score (F F T C) (Sprague-Dawley rats; [6]): 2.0
Global Score (Sprague-Dawley rats; [6]): 9.7
Irritability score (Irrit) (Sprague-Dawley rats; [6]): 0.0
Profuse salivation score (Pr Sal) (Sprague-Dawley rats; [6]): 0.0
Ptosis score (Ptos) (Sprague-Dawley rats; [6]): 0.0
Swallowing movements score (Sw M) (Sprague-Dawley rats; [6]): 0.3
Weight loss score (W Los) (Sprague-Dawley rats; [6]): 1.7
Wet dog shakes score (W D S) (Sprague-Dawley rats; [6]): 3.0
Abdominal constrictions score (Abd C) (Sprague-Dawley rats; [7]): 0.0
Abnormal posture score (Ab P) (Sprague-Dawley rats; [7]): 0.0
Chromodacryorrhea score (Chr) (Sprague-Dawley rats; [7]): 1.7
Diarrhea score (Diarr) (Sprague-Dawley rats; [7]): 1.7
Erection or ejaculation score (Er Ej) (Sprague-Dawley rats; [7]): 0.5
Escape attempts score (Esc A) (Sprague-Dawley rats; [7]): 2.5
Facial fasciculation or teeth chattering score (F F T C) (Sprague-Dawley rats; [7]): 2.0
Global Score (Sprague-Dawley rats; [7]): 14.0
Irritability score (Irrit) (Sprague-Dawley rats; [7]): 0.0
Profuse salivation score (Pr Sal) (Sprague-Dawley rats; [7]): 1.2
Ptosis score (Ptos) (Sprague-Dawley rats; [7]): 0.0
Swallowing movements score (Sw M) (Sprague-Dawley rats; [7]): 0.3
Weight loss score (W Los) (Sprague-Dawley rats; [7]): 3.2
Wet dog shakes score (W D S) (Sprague-Dawley rats; [7]): 1.0
Abdominal constrictions score (Abd C) (Sprague-Dawley rats; [8]): 0.0
Abnormal posture score (Ab P) (Sprague-Dawley rats; [8]): 0.6
Chromodacryorrhea score (Chr) (Sprague-Dawley rats; [8]): 1.0
Diarrhea score (Diarr) (Sprague-Dawley rats; [8]): 2.0
Erection or ejaculation score (Er Ej) (Sprague-Dawley rats; [8]): 0.0
Escape attempts score (Esc A) (Sprague-Dawley rats; [8]): 1.6
Facial fasciculation or teeth chattering score (F F T C) (Sprague-Dawley rats; [8]): 0.4
Global Score (Sprague-Dawley rats; [8]): 10.4
Irritability score (Irrit) (Sprague-Dawley rats; [8]): 0.0
Profuse salivation score (Pr Sal) (Sprague-Dawley rats; [8]): 1.4
Ptosis score (Ptos) (Sprague-Dawley rats; [8]): 0.0
Swallowing movements score (Sw M) (Sprague-Dawley rats; [8]): 0.0
Weight loss score (W Los) (Sprague-Dawley rats; [8]): 3.0
Wet dog shakes score (W D S) (Sprague-Dawley rats; [8]): 0.4
effect on the score for escape attempt (Sprague-Dawley rats; mazindol 2 mg/kg): increased
effect on the scores for weight loss and diarrhea (Sprague-Dawley rats; mazindol 0.125-2 mg/kg): Did not significantly reduce
reduction of the global score (FIG. 4) (Sprague-Dawley rats; mazindol 0.125-2 mg/kg): significant at all doses except 0.125 mg/kg
reduction of the score for facial fasciculation or teeth chattering (FIG. 6) (Sprague-Dawley rats; mazindol 0.125-2 mg/kg): significant at 2 mg/kg
reduction of the score for profuse salivation (FIG. 6) (Sprague-Dawley rats; mazindol 0.125-2 mg/kg): significant at all doses except 2 mg/kg
reduction of the score for wet dog shake (FIG. 5) (Sprague-Dawley rats; mazindol 0.125-2 mg/kg): significant effect at 1 and 2 mg/kg
effect on naloxone precipitated withdrawal symptoms of heroin (Sprague-Dawley rats; mazindol, significant at 0.25, 0.5, 1 and 2 mg/kg, but not at 0.125 mg/kg): decreased the naloxone precipitated withdrawal symptoms of heroin
efficacy in treating cocaine abuse and dependence [1]: ineffective
carcinogenic effect [2]: no carcinogenic effect
mutagenic effect [2]: no mutagenic effect
toxic potential [2]: very low
toxicology effect in reproduction [2]: no toxicology effect in reproduction
stability (hydrolysis to Met) [3]: hydrolysis of mazindol at moderate temperatures in neutral and alkaline aqueous solutions
